According to PMC6278366, “Synthesis and Evaluation of Anticancer Activities of Novel C-28 Guanidine-Functionalized Triterpene Acid Derivatives” (Molecules, 2018):
Counter-ions that a name gives are not always drawn.

How the values were obtained:
Type in all cases: cell-based, human
[1] = system: U937 (histiocytic lymphoma) cells; test: Cytotoxicity assay (7-AAD viability, flow cytometry), U937; details: Homo sapiens, U-937, mean ± SE, at least three experiments in duplicate; viable cells; read-out: IC50 U937
Outline: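 Suspension lines in RPMI 1640 with 10% FBS at 37 °C, 5% CO2, treated with compounds at 1, 5, 10, 15, 30 and 60 μM. Live/dead status by 7-AAD staining (15 min, room temperature, dark) read on flow cytometer, 488 nm excitation, 675/30 nm emission.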

[2] = system: HeLa (cervical cancer) cells; test: Cytotoxicity assay (7-AAD viability, flow cytometry), HeLa; details: Homo sapiens, HeLa, mean ± SE, at least three experiments in duplicate; viable cells
Outline: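 Adherent HeLa, HEK293 and normal human fibroblasts (5 × 10⁴/well, DMEM with 10% FBS, 37 °C, 5% CO2) were treated with compounds at 1, 5, 10, 15, 30 and 60 μM. Viability was read as 7-AAD exclusion by flow cytometry after 15 min staining.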

[3] = system: Jurkat cells; test: Annexin V/7-AAD apoptosis assay by flow cytometry; details: 48 h
Description: Apoptosis was determined by flow cytometric analysis of Annexin V and 7-aminoactinomycin D staining. Briefly, 200 μL of Guava Nexin reagent (Millipore, Bedford, MA, USA) was added to 5 × 10^5 cells in 200 μL, and the cells were incubated with the reagent for 20 min at room temperature in the dark. […] At the end of incubation, the cells were analyzed on NovoCyteTM 2000 FlowCytometry System (ACEA). Different states of cell death were defined as follows: normal cells are localized in the lower-left quadrant (Annexin V^−/PI^−); early apoptotic cells are in the lower-right quadrant (Annexin V^+/PI^−); late apoptotic cells and necrotic cells are in the upper-right quadrant (Annexin V^+/PI^+); and necrotic cells are in the upper-left quadrant (Annexin V^−/PI^+).
Figure 2 AnnexinV/7-AAD staining upon induction of apoptosis in Jurkat cells. […] Then, the cells were harvested, stained with Annexin V/7-AAD and analyzed by flow cytometry. The experiments were performed three times, and the results of the representative experiments are shown. The first cytogram represents an untreated cell sample (A); after incubation with dihydrobetulinic acid for 24 h (B) and for 48 h (C); after incubation with compound 15 for 24 h (D) and for 48 h (E); after incubation with compound 15c for 24 h (F) and for 48 h (G); after incubation with compound 18c for 24 h (H) and for 48 h (I); after incubation with compound 20c for 24 h (J) and for 48 h (K). Q7-1, necrotic cells; Q7-2, late apoptotic cells; Q7-3, living cells; Q7-4, early apoptotic cells. TEXT PRINTED IN THE PICTURE: (B) Dihydro BA: Q7-1 0.96% (59 μM); Q7-2 12.11% (59 μM); Q7-3 80.09% (59 μM); Q7-4 6.84% (59 μM) | (C) Dihydro BA: Q7-1 2.34% (59 μM); Q7-2 20.53% (59 μM); Q7-3 73.11% (59 μM); Q7-4 4.02% (59 μM) | (D) Compound 15: Q7-1 3.08% (4 μM); Q7-2 2.24% (4 μM); Q7-3 92.34% (4 μM); Q7-4 2.34% (4 μM) | (E) Compound 15: Q7-1 5.53% (4 μM); Q7-2 91.79% (4 μM); Q7-3 0.58% (4 μM); Q7-4 2.10% (4 μM) | (F) Compound 15c: Q7-1 1.51% (4 μM); Q7-2 2.64% (4 μM); Q7-3 84.92% (4 μM); Q7-4 10.93% (4 μM) | (G) Compound 15c: Q7-1 21.72% (4 μM); Q7-2 16.54% (4 μM); Q7-3 54.49% (4 μM); Q7-4 7.25% (4 μM) | (H) Compound 18c: Q7-1 1.48% (4 μM); Q7-2 3.70% (4 μM); Q7-3 91.14% (4 μM); Q7-4 3.67% (4 μM) | (I) Compound 18c: Q7-1 20.73% (4 μM); Q7-2 14.32% (4 μM); Q7-3 58.16% (4 μM); Q7-4 6.79% (4 μM) | (J) Compound 20c: Q7-1 3.78% (8 μM); Q7-2 1.72% (8 μM); Q7-3 92.26% (8 μM); Q7-4 2.24% (8 μM) | (K) Compound 20c: Q7-1 6.09% (8 μM); Q7-2 7.35% (8 μM); Q7-3 78.36% (8 μM); Q7-4 8.20% (8 μM) DOUBTS OF THE COPYIST ABOUT THIS PICTURE: Panel A (Control, untreated cells: Q7-1 3.75%, Q7-2 0.00%, Q7-3 96.24%, Q7-4 0.01%) left out of lines because it is not a substance / Dihydro BA panel B, Q7-3: 80.09% partly overlaid by plot points, 80.09 or 80.03 / Dihydro BA panel C, Q7-3: 73.11% partly overlaid by plot points / Compound 18c panel I, Q7-3: 58.16% small print, 58.16 or 58.18 / Compound 15 panel E, Q7-3: 0.58% small print, 0.58 or 0.56

[4] = at IC50 concentration (59 μM Dihydro BA; 4 μM 15, 15c, 18c; 8 μM 20c)

Structure (SMILES): CC(=O)O[C@H]1CC[C@@]2(C)C(CC[C@]3(C)C2CCC2C4C(C(C)C)CC[C@]4(C(=O)OCC(N)(CO)CO)CC[C@]23C)C1(C)C (stereo partly drawn) [Compound 15, 3β-[2-Amino-3-hydroxy-2-(hydroxymethyl)propyl]-3-O-acetyl-lupane-28-oate]
- IC50 [1]: 6.6 ± 0.23 µM
- IC50 [2]: 19 ± 0.49 µM
- late apoptotic cells (Q7-2) [3, 4]: 91.7%

Structure (SMILES): CC(=O)O[C@H]1CC[C@@]2(C)C(CC[C@]3(C)C2CCC2C4C(C(C)C)CC[C@]4(C(=O)OCC(CO)(CO)NC(=N)N)CC[C@]23C)C1(C)C (stereo partly drawn) [Compound 15c, 3β-[2-Guanidine-3-hydroxy-2-(hydroxymethyl)propyl]-3-O-acetyl-lupane-28-oate hydrochloride]
- IC50 [1]: 15 ± 0.23 µM
- IC50 [2]: 14 ± 0.31 µM
- early apoptotic cells (Q7-4) [3, 4]: 7.2%
- late apoptotic cells (Q7-2) [3, 4]: 16.5%
- living (vital) cells (Q7-3) [3, 4]: 54.5%
- necrotic cells (Q7-1) [3, 4]: 21.7%
- total number of apoptotic cells (early + late) ([3]; at IC50 concentration (59 μM Dihydro BA; 4 μM 15c; 8 μM 20c)): 23.7%
